We go through 16 compounds from patent US10221171B2, “Oxathiazole thiazolium Hsp 70 inhibitors” (THE REGENTS OF THE UNIVERSITY OF CALIFORNIA, priority 2015, dated 2019).

One data set is described as follows: Microsomal stability. It counts as in vitro ADME.
The subject of a further data set is MDA-MB-231. In words: MTT cell viability assay, MDA-MB-231. As to conditions: Homo sapiens. It counts as cell-based. In general terms: Tetrazolium assays rely on reduction of a dye to a coloured formazan, in cell work by metabolically active cells.
The next data set has as its system MCF-7. The experiment in a line: MTT cell viability assay, MCF-7. It counts as cell-based. The following applies: for IC50: read-out: IC50/μM MCF-7; for EC50: Table 2.
The next data set can be described thus: Solubility. The format is physicochemical.
Another data set concerns IMR-90. The experiment in a line: Cell viability, IMR-90. It counts as cell-based. The following applies: for EC50: Homo sapiens, IMR-90, Table 2; for SI IMR-90/MCF-7: ratio of EC50 IMR-90 to EC50 MCF-7. How it is done:
Cells were then treated with compound at various concentrations in 0.2 mL media. After the 72-hour incubation period, cells were washed in PBS (3×100 μL), and 10 μL MTT reagent was added with 100 μL fresh media. Cells were then incubated for 4 hr in a humidified chamber at 37° C. with 5% CO2. Insoluble formazan crystals were solubilized by addition of 0.1 mL detergent solution (4 hr at room temp., dark). Resulting colored solutions were then quantified at an absorbance of 570 nm.

The test system of another data set is MEF (C57BL/6). The experiment in a line: MTT cell viability assay, MEF (C57BL/6). The format is cell-based. The following applies: for IC50 / EC50: Mus musculus; for EC50: Table 2; for SI MEF/MCF-7: ratio of EC50 MEF to EC50 MCF-7.
A short description of data set [1]: Tolerability in mice based on weight. It counts as in vivo. As to conditions: daily i.p. 5 mg/kg/day, male CD1 mice. As to the method: Analogs were delivered daily to male CD1 mice by i.p. at 5 mg/kg/day. Five mice per group. Error bars represent SEM.
Data set [2] can be described thus: Pharmacokinetics in CD1 mice, single i.p. injection, plasma by HPLC. The format is in vivo. As to the method:
A single injection of compound was delivered to CD1 mice by i.p. and the plasma collected at the indicated times. Compound levels were calculated by HPLC, using a standard curve.

[3] abbreviates: Homo sapiens, MCF7, MTT, 72-hour incubation.
Where [4] appears, read: MTT, 72-hour incubation, read-out: IC50/μM MEF (C57BL/6).
Where [5] appears, read: Homo sapiens, MCF7, 72 h, MTT, 72-hour incubation.
The mark [6] stands for this setting: 72 h, read-out: IC50/μM MEF (C57BL/6), MTT, 72-hour incubation.
Where [7] appears, read: MDA-MB-231, 72 h, 72-hour incubation.

Structures are written as SMILES. Read-outs that look alike come from different tables or passages of the source.

For `CCn1c(=O)/c(=C2\Sc3cc(SC)ccc3N2C)s/c1=C\c1scc[n+]1Cc1ccccc1C(F)(F)F.[Cl-]` [JG-312], the Microsomal min in “Microsomal stability” was 23 min. Also, the IC50 with MDA-MB-231 (MDA-MB-231, 72-hour incubation) was 0.14 ± 0.01 µM; in the data set on MCF-7 (setting [3]), 0.1 ± 0.01 µM; in the data set with MEF (C57BL/6) (setting [4]), 3.2 ± 0.2 µM. In addition, the EC50 (in general, the concentration at which the effect is half-maximal) in the data set on MCF-7 (Homo sapiens, MCF7) is 0.1 ± 0.01 µM; in the data set on IMR-90, more than 10 µM; with MEF (C57BL/6) it was 3.2 ± 0.2 µM. For the same compound, the solubility – broadly, the dissolved amount per volume that the medium holds – in “Solubility” came out at 16 µM. Also, in the data set with IMR-90, the “SI IMR-90/MCF-7” value was more than 100. The “SI MEF/MCF-7” value with MEF (C57BL/6) was determined as 32.
In the data set “Microsomal stability”, `CCn1c(=O)/c(=C2\Sc3cc(SC)ccc3N2C)s/c1=C\c1scc[n+]1Cc1ccccc1SC(F)(F)F.[Cl-]` [JG-356] gave a Microsomal min of 23 min. The IC50 turned out to be 0.09 ± 0.005 µM with MDA-MB-231 (MDA-MB-231, 72-hour incubation); 0.089 ± 0.006 µM with MCF-7 (setting [3]); 1.9 ± 0.1 µM with MEF (C57BL/6) (setting [4]). Further, the EC50 stood at 0.089 ± 0.006 µM with MCF-7 (Homo sapiens, MCF7); 1.5 ± 0.1 µM in the data set on IMR-90; 1.9 ± 0.1 µM in the data set on MEF (C57BL/6). In addition, the solubility in “Solubility” was found to be 16 µM. Further, the “SI IMR-90/MCF-7” value in the data set with IMR-90 is 16. Also, the “SI MEF/MCF-7” value in the data set on MEF (C57BL/6) turned out to be 21.
In the case of `CCn1c(=O)/c(=C2\Sc3cc(Cl)ccc3N2C)s/c1=C\c1scc[n+]1Cc1ccccc1.[Cl-]` [JG-98, reference compound], in “Microsomal stability”, the Microsomal min worked out at 37 min. In the data set on MCF-7, it took 0.71 ± 0.22 µM to reach a half-maximal effect (EC50). In the data set “Solubility”, this compound registered a solubility of 31 µM.
`CCc1ccc2c(c1)S/C(=c1/s/c(=C\c3scc[n+]3Cc3ccc(C(F)(F)F)o3)n(CC)c1=O)N2C.[Cl-]` [JG-300] gave a Microsomal min in “Microsomal stability” of 37 min. Further, the IC50 in the data set with MDA-MB-231 (MDA-MB-231, 72-hour incubation) was found to be 0.1 ± 0.01 µM; with MCF-7 (setting [5]) it was 0.11 ± 0.01 µM; in the data set with MEF (C57BL/6) (setting [6]), 1.4 ± 0.06 µM. The EC50 in the data set with MCF-7 (Homo sapiens, MCF7) amounted to 0.11 ± 0.01 µM; in the data set with IMR-90, 3.3 ± 0.3 µM; with MEF (C57BL/6) it was 1.4 ± 0.1 µM.
`CCn1c(=O)/c(=C2\Sc3cc(SC)ccc3N2C)s/c1=C\c1scc[n+]1Cc1ccccc1OC(F)(F)F.[Cl-]` [JG-311]: the Microsomal min in “Microsomal stability” is on record as 22 min. Besides, the IC50 stood at 0.14 ± 0.01 µM with MDA-MB-231 (MDA-MB-231, 72-hour incubation); 0.098 ± 0.009 µM with MCF-7 (setting [3]); 2 ± 0.1 µM in the data set with MEF (C57BL/6) (setting [4]). Besides, the EC50 in the data set on MCF-7 (Homo sapiens, MCF7) is 0.098 ± 0.009 µM; with IMR-90, 3.5 ± 0.6 µM; in the data set with MEF (C57BL/6) it was 2 ± 0.1 µM. The compound further yielded a solubility in “Solubility” of 16 µM. Besides, in the data set with IMR-90, the “SI IMR-90/MCF-7” value amounted to 35. For the same compound, the “SI MEF/MCF-7” value in the data set on MEF (C57BL/6) is 20.
As to `CCn1c(=O)/c(=C2\Sc3cc(Br)ccc3N2C)s/c1=C\c1scc[n+]1Cc1ccc(C(F)(F)F)o1.[Cl-]` [JG-294], the Microsomal min in the data set “Microsomal stability” is recorded as more than 60 min. Also, the IC50 is 0.18 ± 0.01 µM in the data set on MDA-MB-231 (MDA-MB-231, 72-hour incubation); 0.1 ± 0.01 µM in the data set on MCF-7 (Homo sapiens, MCF7, 72 h); 3.5 ± 0.4 µM in the data set with MEF (C57BL/6) (setting [6]). Besides, in data set [1], the “tolerated in mice, based on weight” value is on record as “tolerated in mice”. In addition, the EC50 in the data set on MCF-7 (Homo sapiens, MCF7) came out at 0.1 ± 0.01 µM; with IMR-90, 9.8 ± 2 µM; with MEF (C57BL/6), 3.5 ± 0.4 µM. For the same compound, the “AUC0-∞/nM × h” value in data set [2] worked out at 2429 nM·h. In addition, the Tmax (commonly the time at which the peak concentration occurs) in data set [2] (mouse, ip) came out at 2 h. Moreover, the half-life in data set [2] (mouse, ip, read-out: t1/2/h (converted)) was 1790 min.
Regarding `CCn1c(=O)/c(=C2\Sc3cc(Cl)ccc3N2C)s/c1=C\c1scc[n+]1Cc1ccnc(Cl)c1` [JG-257], the IC50 in the data set on MDA-MB-231 (setting [7]) is 7.2 ± 0.8 µM; with MCF-7 (setting [3]) it was more than 5 µM; with MEF (C57BL/6) (setting [4]) it was 1.1 ± 0.1 µM.
Turning to `CCn1c(=O)/c(=C2\Sc3cc(F)ccc3N2C)s/c1=C\c1scc[n+]1Cc1ccccc1CO` [JG-330], the IC50 is 1.93 ± 0.27 µM in the data set with MDA-MB-231 (MDA-MB-231, 72-hour incubation); 1.08 ± 0.14 µM with MCF-7 (setting [3]); more than 10 µM with MEF (C57BL/6) (setting [4]).
The corresponding values for `CCc1ccc2c(c1)S/C(=c1/s/c(=C\c3scc[n+]3Cc3ccccc3C)n(CC)c1=O)N2C` [JG-296] are 0.14 ± 0.01 µM, 0.1 ± 0.01 µM and 0.61 ± 0.02 µM.
The corresponding values for `CCn1c(=O)/c(=C2\Sc3cc(C)ccc3N2C)s/c1=C\c1scc[n+]1C(C)c1ccccc1` (stereo not drawn) [JG-318] are 0.11 ± 0.01 µM, 0.16 ± 0.03 µM and 1.1 ± 0.1 µM.
For the compound `CCn1c(=O)/c(=C2\Sc3cc(Cl)ccc3N2C)s/c1=C\c1scc[n+]1Cc1c(Cl)cccc1Cl` [JG-337], the IC50 in the data set with MDA-MB-231 (setting [7]) amounted to 0.16 ± 0.01 µM; with MCF-7 (setting [5]) it was 0.16 ± 0.01 µM; in the data set with MEF (C57BL/6) (setting [6]) it was 1.4 ± 0.1 µM.
With `CCn1c(=O)/c(=C2\Sc3cc(Cl)ccc3N2C)s/c1=C\c1scc[n+]1Cc1ccc(Cl)cc1` [JG-255], the IC50 stood at 0.41 ± 0.06 µM with MDA-MB-231 (setting [7]), 1.45 ± 0.13 µM with MCF-7 (setting [5]) and 3.1 ± 0.3 µM in the data set on MEF (C57BL/6) (setting [6]).
Regarding `CCn1c(=O)/c(=C2\Sc3cc(C)ccc3N2C)s/c1=C\c1scc[n+]1Cc1ccccc1C(=O)OC` [JG-374], the IC50 is 0.15 ± 0.01 µM in the data set with MDA-MB-231 (MDA-MB-231, 72-hour incubation); 0.16 ± 0.01 µM in the data set with MCF-7 (setting [3]); 0.69 ± 0.03 µM with MEF (C57BL/6) (setting [4]).
The corresponding values for `CCn1c(=O)/c(=C2\Sc3ccc(C)cc3N2C)s/c1=C\c1scc[n+]1Cc1ccsc1C(=O)OC` [JG-369] are 0.12 ± 0.01 µM, 0.063 ± 0.004 µM and 0.44 ± 0.02 µM.
For `CCn1c(=O)/c(=C2\Sc3cc(OC)ccc3N2C)s/c1=C\c1scc[n+]1CCc1cccc(C(F)(F)F)c1` [JG-393], in that order: 0.21 ± 0.01 µM, 0.68 ± 0.13 µM and 2.1 ± 0.1 µM.
For `CCn1c(=O)/c(=C2\Sc3ccc(OC)cc3N2C)s/c1=C\c1scc[n+]1Cc1c(Cl)cccc1Cl` [JG-403], in that order: 0.2 ± 0.01 µM, 0.7 ± 0.08 µM and 1.2 ± 0.1 µM.
